Values joined by “and” are separate entries in the source; they are usually repeats but may differ in a detail not shown here. Equal entries are not always repeated.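 Each compound was tested at five concentrations against cells in 96-well plates for 48 hours. GI50 = concentration required for 50% inhibition of growth. At the TGI there is no net growth.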
Key:
Test in all cases: DTP human tumour cell line panel, 48 h
ACHN renal = system: ACHN renal
MALME-3M melanoma = system: MALME-3M melanoma
HT29 colon = system: HT29 colon
CCRF-CEM leukemia = system: CCRF-CEM leukemia
MCF7 breast = system: MCF7 breast
CAKI-1 renal = system: CAKI-1 renal
MOLT-4 leukemia = system: MOLT-4 leukemia
TK-10 renal = system: TK-10 renal
M14 melanoma = system: M14 melanoma
K-562 leukemia = system: K-562 leukemia

COc1ccc2cc1Oc1ccc(cc1)CC1c3c(cc(OC)c4c3Oc3cc5c(cc3O4)CCNC5C2)CCN1C (stereo not given)
GI50 (ACHN renal): 1.49 µM | TGI (ACHN renal): 4.01 µM and 2.81 µM | TGI (MALME-3M melanoma): 3.68 µM | GI50 (HT29 colon): 0.626 µM | TGI (HT29 colon): 1.91 µM | TGI (CCRF-CEM leukemia): 3.61 µM | TGI (MCF7 breast): 3.38 µM | GI50 (CAKI-1 renal): 1.67 µM | TGI (CAKI-1 renal): 5.77 µM and 3.62 µM | TGI (MOLT-4 leukemia): 3.44 µM | GI50 (TK-10 renal): 1.74 µM | TGI (TK-10 renal): 3.68 µM and 3.12 µM | GI50 (M14 melanoma): 1.73 µM | TGI (M14 melanoma): 6.83 µM and 3.25 µM

CC(C)(C)OC(=O)CC(S(=O)(=O)c1ccccc1)S(=O)(=O)c1ccccc1
GI50 (ACHN renal): 1.75 µM | TGI (ACHN renal): 3.19 µM | GI50 (MALME-3M melanoma): 2.08 µM | TGI (MALME-3M melanoma): 4.36 µM | GI50 (CCRF-CEM leukemia): 1.64 µM | TGI (CCRF-CEM leukemia): 3.83 µM | GI50 (MCF7 breast): 13.5 µM | TGI (MCF7 breast): 33 µM | GI50 (K-562 leukemia): 3.4 µM | TGI (K-562 leukemia): 13.5 µM | GI50 (CAKI-1 renal): 1.66 µM | TGI (CAKI-1 renal): 3.52 µM | GI50 (MOLT-4 leukemia): 2.42 µM | TGI (MOLT-4 leukemia): 5.57 µM | GI50 (TK-10 renal): 1.6 µM | TGI (TK-10 renal): 3.02 µM | GI50 (M14 melanoma): 10.3 µM | TGI (M14 melanoma): 22.7 µM

COc1cc(C(=O)Nc2ccc(-c3nc4ccccc4[nH]3)cc2)cc(OC)c1OC
GI50 (ACHN renal): 8.23 µM | TGI (ACHN renal): 23.1 µM | GI50 (MALME-3M melanoma): 12 µM | TGI (MALME-3M melanoma): 31.6 µM | GI50 (HT29 colon): 5.95 µM | TGI (HT29 colon): 19.6 µM | GI50 (CCRF-CEM leukemia): 7.9 µM | TGI (CCRF-CEM leukemia): 39.3 µM | GI50 (MCF7 breast): 11.2 µM | TGI (MCF7 breast): 30.6 µM | GI50 (K-562 leukemia): 7.39 µM | TGI (K-562 leukemia): 27.4 µM | GI50 (CAKI-1 renal): 10.9 µM | TGI (CAKI-1 renal): 25.3 µM | GI50 (MOLT-4 leukemia): 9.82 µM | TGI (MOLT-4 leukemia): 45.4 µM | GI50 (TK-10 renal): 15.1 µM | TGI (TK-10 renal): 29.3 µM

C#CCN(CCCOc1ccc(Cl)cc1Cl)CCCSC(=O)CCCCCN1/C(=C\C=C2/CCCC(/C=C/C3=[N+](CCCCCC(=O)[O-])c4ccccc4C3(C)C)=C2Cl)C(C)(C)c2ccccc21
GI50 (ACHN renal): 2.65 µM | TGI (ACHN renal): 7.5 µM | GI50 (MALME-3M melanoma): 1.21 µM | TGI (MALME-3M melanoma): 2.85 µM | GI50 (HT29 colon): 2.49 µM | TGI (HT29 colon): 6.47 µM | GI50 (CCRF-CEM leukemia): 0.344 µM | TGI (CCRF-CEM leukemia): 4.38 µM | GI50 (MCF7 breast): 1.24 µM | TGI (MCF7 breast): 3.53 µM | GI50 (K-562 leukemia): 0.667 µM | TGI (K-562 leukemia): > 100 µM | GI50 (MOLT-4 leukemia): 1.48 µM | TGI (MOLT-4 leukemia): > 100 µM | GI50 (TK-10 renal): 2.21 µM | TGI (TK-10 renal): 5.17 µM | GI50 (M14 melanoma): 1.61 µM | TGI (M14 melanoma): 3.36 µM

C=C1CCC2C(C)(CO)C(O)CCC2(C)C1C/C=C1\C(=O)OCC1O (stereo not given)
TGI (ACHN renal): > 100 µM | TGI (MALME-3M melanoma): 30.2 µM | TGI (HT29 colon): 25.8 µM | TGI (CCRF-CEM leukemia): > 100 µM | TGI (MCF7 breast): 31.3 µM | TGI (K-562 leukemia): > 100 µM | TGI (MOLT-4 leukemia): > 100 µM | TGI (TK-10 renal): > 100 µM | TGI (M14 melanoma): 53.7 µM

CNc1ccc(CSc2ccc(C)cc2)cc1
GI50 (ACHN renal): 34 µM | TGI (ACHN renal): > 100 µM | GI50 (MALME-3M melanoma): 31.5 µM | TGI (MALME-3M melanoma): > 100 µM | GI50 (HT29 colon): 21.7 µM | TGI (HT29 colon): 77.8 µM | GI50 (CCRF-CEM leukemia): 0.676 µM | TGI (CCRF-CEM leukemia): 12.2 µM | GI50 (MCF7 breast): 21.2 µM | TGI (MCF7 breast): > 100 µM | GI50 (CAKI-1 renal): 7.94 µM | TGI (CAKI-1 renal): > 100 µM | GI50 (MOLT-4 leukemia): 2.22 µM | TGI (MOLT-4 leukemia): 29.3 µM | GI50 (TK-10 renal): 40.3 µM | TGI (TK-10 renal): > 100 µM | GI50 (M14 melanoma): 13.6 µM | TGI (M14 melanoma): 32.6 µM

— PubChem BioAssay (NCI)
